Source: PubChem BioAssay AID2060606 (Molecular Pharmacology Branch, DTP, NCI, 2025)

Test system: 922993-354-T-J3-PDC complex spheroids, viability, % test/control
Assay: Anticancer human tumor 922993-354-T-J3-PDC patient-derived endometrial carcinoma cell line growth inhibition [CLK]
Conditions: for IC50: curve of first compound; for viability, T/C: stronger effect = lower value
Outline: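 Multi-cell-type spheroids combined patient-derived tumor cells with HUVEC endothelial cells and human mesenchymal stem cells. Paired agents were dosed in half-log steps down from about clinical Cmax, or from 10 microM where Cmax was unknown.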

[1] = second compound 0.0316 µM, first compound 0.0316 µM
[2] = second compound 0.0316 µM, first compound 0.1 µM
[3] = second compound 0.0316 µM, first compound 0.316 µM
[4] = second compound 0.0316 µM, first compound 1 µM
[5] = second compound 0.0316 µM, first compound 3.16 µM
[6] = second compound 0.0316 µM, first compound 10 µM
[7] = second compound 0.1 µM, first compound 0.0316 µM
[8] = second compound 0.1 µM, first compound 0.1 µM
[9] = second compound 0.1 µM, first compound 0.316 µM
[10] = second compound 0.1 µM, first compound 1 µM
[11] = second compound 0.1 µM, first compound 3.16 µM
[12] = second compound 0.1 µM, first compound 10 µM
[13] = second compound 0.316 µM, first compound 0.0316 µM
[14] = second compound 0.316 µM, first compound 0.1 µM
[15] = second compound 0.316 µM, first compound 0.316 µM
[16] = second compound 0.316 µM, first compound 1 µM
[17] = second compound 0.316 µM, first compound 3.16 µM
[18] = second compound 0.316 µM, first compound 10 µM
[19] = second compound 1 µM, first compound 0.0316 µM
[20] = second compound 1 µM, first compound 0.1 µM
[21] = second compound 1 µM, first compound 0.316 µM
[22] = second compound 1 µM, first compound 1 µM
[23] = second compound 1 µM, first compound 3.16 µM
[24] = second compound 1 µM, first compound 10 µM
[25] = second compound 3.16 µM, first compound 0.0316 µM
[26] = second compound 3.16 µM, first compound 0.1 µM
[27] = second compound 3.16 µM, first compound 0.316 µM
[28] = second compound 3.16 µM, first compound 1 µM
[29] = second compound 3.16 µM, first compound 3.16 µM
[30] = second compound 3.16 µM, first compound 10 µM
[31] = second compound 10 µM, first compound 0.0316 µM
[32] = second compound 10 µM, first compound 0.1 µM
[33] = second compound 10 µM, first compound 0.316 µM
[34] = second compound 10 µM, first compound 1 µM
[35] = second compound 10 µM, first compound 3.16 µM
[36] = second compound 10 µM, first compound 10 µM
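Further: spheroids exposed to the agents for 7 days before readout.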

`Nc1ccn(C2OC(CO)C(O)C2(F)F)c(=O)n1` (stereo not drawn) + CNC(=O)c1ccc(Nc2nc(OC3CCCC3)c3c(-c4ccc5nc(C)oc5c4)c[nH]c3n2)c(OC)c1 was tested, and the IC50 (second compound 0.0316 µM) was under 31.6 nM, the IC50 (second compound 0.1 µM) was under 31.6 nM and the IC50 (second compound 0.316 µM) was under 31.6 nM. It also gave an IC50 (second compound 1 µM) of under 31.6 nM, an IC50 (second compound 3.16 µM) of under 31.6 nM and an IC50 (second compound 10 µM) of under 31.6 nM. The viability, T/C [1] was 15.7%, the viability, T/C [2] was 17.5% and the viability, T/C [3] was 18%. For the same molecule, the viability, T/C [4] was 16.6%, the viability, T/C [5] was 15.5% and the viability, T/C [6] was 18.3%. It also gave a viability, T/C [7] of 17.9%, a viability, T/C [8] of 16.2% and a viability, T/C [9] of 15.7%. For the same molecule, the viability, T/C [10] was 14.9%, the viability, T/C [11] was 12.5% and the viability, T/C [12] was 17.3%. It also gave a viability, T/C [13] of 15.7%, a viability, T/C [14] of 15.5% and a viability, T/C [15] of 16.5%. The viability, T/C [16] was 18.1%, the viability, T/C [17] was 16.9% and the viability, T/C [18] was 17.2%. The viability, T/C [19] was 14.7%, the viability, T/C [20] was 14.6% and the viability, T/C [21] was 12.9%. It also gave a viability, T/C [22] of 13.3%, a viability, T/C [23] of 14.8% and a viability, T/C [24] of 13.2%. The viability, T/C [25] was 13.6%, the viability, T/C [26] was 15.8% and the viability, T/C [27] was 11.8%. It also gave a viability, T/C [28] of 12.4%, a viability, T/C [29] of 12.9% and a viability, T/C [30] of 13.1%. The viability, T/C [31] was 13%, the viability, T/C [32] was 12.5% and the viability, T/C [33] was 10.8%. It also gave a viability, T/C [34] of 11.6%, a viability, T/C [35] of 12.7% and a viability, T/C [36] of 11.4%.
With `CC(Nc1ccc2c(c1)OCCn1cc(N3C(=O)OCC3C(F)F)nc1-2)C(N)=O` (stereo not drawn) + CN1CCN(c2cc(C(=O)Nc3cc4cc(-c5cnn(C)c5)ccc4cn3)ccn2)CC1 the IC50 (second compound 0.0316 µM) was 2730 nM, the IC50 (second compound 0.1 µM) was 1120 nM and the IC50 (second compound 0.316 µM) was 59.6 nM. The IC50 (second compound 1 µM) was under 31.6 nM, the IC50 (second compound 3.16 µM) was under 31.6 nM and the IC50 (second compound 10 µM) was under 31.6 nM. For the same molecule, the viability, T/C [1] was 110%, the viability, T/C [2] was 105% and the viability, T/C [3] was 84.8%. For the same molecule, the viability, T/C [4] was 67.8%, the viability, T/C [5] was 48.7% and the viability, T/C [6] was 25.6%. The viability, T/C [7] was 109%, the viability, T/C [8] was 97.6% and the viability, T/C [9] was 91%. It also gave a viability, T/C [10] of 50.3%, a viability, T/C [11] of 34.7% and a viability, T/C [12] of 27.2%. For the same molecule, the viability, T/C [13] was 49.6%, the viability, T/C [14] was 55% and the viability, T/C [15] was 28.7%. The viability, T/C [16] was 23.4%, the viability, T/C [17] was 16.8% and the viability, T/C [18] was 6.83%. The viability, T/C [19] was 0.15%, the viability, T/C [20] was 0.13% and the viability, T/C [21] was 1.42%. For the same molecule, the viability, T/C [22] was 0.08%, the viability, T/C [23] was 0.07% and the viability, T/C [24] was 1.09%. It also gave a viability, T/C [25] of 0.09%, a viability, T/C [26] of 0.57% and a viability, T/C [27] of 0.75%. It also gave a viability, T/C [28] of 0.83%, a viability, T/C [29] of 1.91% and a viability, T/C [30] of 1.61%. It also gave a viability, T/C [31] of 0.09%, a viability, T/C [32] of 0.13% and a viability, T/C [33] of 1.44%. The viability, T/C [34] was 0.18%, the viability, T/C [35] was 1.19% and the viability, T/C [36] was 1.25%.
`O=C(c1cc(Cc2n[nH]c(=O)c3ccccc23)ccc1F)N1CCN(C(=O)C2CC2)CC1` + CN1CCN(c2cc(C(=O)Nc3cc4cc(-c5cnn(C)c5)ccc4cn3)ccn2)CC1 showed an IC50 (second compound 0.0316 µM) of over 10000 nM, an IC50 (second compound 0.1 µM) of over 10000 nM and an IC50 (second compound 0.316 µM) of under 31.6 nM. For the same molecule, the IC50 (second compound 1 µM) was under 31.6 nM, the IC50 (second compound 3.16 µM) was under 31.6 nM and the IC50 (second compound 10 µM) was under 31.6 nM. For the same molecule, the viability, T/C [1] was 118%, the viability, T/C [2] was 106% and the viability, T/C [3] was 108%. The viability, T/C [4] was 117%, the viability, T/C [5] was 93.5% and the viability, T/C [6] was 97%. It also gave a viability, T/C [7] of 92.1%, a viability, T/C [8] of 98.6% and a viability, T/C [9] of 95.8%. The viability, T/C [10] was 87%, the viability, T/C [11] was 84.6% and the viability, T/C [12] was 84.8%. For the same molecule, the viability, T/C [13] was 44.1%, the viability, T/C [14] was 32% and the viability, T/C [15] was 24.3%. It also gave a viability, T/C [16] of 33%, a viability, T/C [17] of 39.1% and a viability, T/C [18] of 32.2%. For the same molecule, the viability, T/C [19] was 0.1%, the viability, T/C [20] was 0.12% and the viability, T/C [21] was 1.56%. For the same molecule, the viability, T/C [22] was 0.08%, the viability, T/C [23] was 1.32% and the viability, T/C [24] was 1.97%. For the same molecule, the viability, T/C [25] was 0.08%, the viability, T/C [26] was 0.63% and the viability, T/C [27] was 0.57%. The viability, T/C [28] was 0.11%, the viability, T/C [29] was 1.25% and the viability, T/C [30] was 1.13%. It also gave a viability, T/C [31] of 0.12%, a viability, T/C [32] of 1.28% and a viability, T/C [33] of 2.09%. It also gave a viability, T/C [34] of 1.28%, a viability, T/C [35] of 0.42% and a viability, T/C [36] of 2.31%.
`C=CC(=O)Nc1cc(Nc2nccc(-c3cn(C)c4ccccc34)n2)c(OC)cc1N(C)CCN(C)C` + CNC(=O)c1ccc(Nc2nc(OC3CCCC3)c3c(-c4ccc5nc(C)oc5c4)c[nH]c3n2)c(OC)c1 gave an IC50 (second compound 0.0316 µM) of over 300 nM, an IC50 (second compound 0.1 µM) of over 300 nM and an IC50 (second compound 0.316 µM) of over 300 nM. It also gave an IC50 (second compound 1 µM) of under 0.949 nM, an IC50 (second compound 3.16 µM) of under 0.949 nM and an IC50 (second compound 10 µM) of under 0.949 nM. For the same molecule, the viability, T/C (second compound 0.0316 µM, first compound 0.000949 µM) was 106%, the viability, T/C (second compound 0.0316 µM, first compound 0.003 µM) was 105% and the viability, T/C (second compound 0.0316 µM, first compound 0.00949 µM) was 106%. It also gave a viability, T/C (second compound 0.0316 µM, first compound 0.03 µM) of 102%, a viability, T/C (second compound 0.0316 µM, first compound 0.0949 µM) of 96.9% and a viability, T/C (second compound 0.0316 µM, first compound 0.3 µM) of 89.2%. The viability, T/C (second compound 0.1 µM, first compound 0.000949 µM) was 97.5%, the viability, T/C (second compound 0.1 µM, first compound 0.003 µM) was 107% and the viability, T/C (second compound 0.1 µM, first compound 0.00949 µM) was 96.4%. The viability, T/C (second compound 0.1 µM, first compound 0.03 µM) was 98.3%, the viability, T/C (second compound 0.1 µM, first compound 0.0949 µM) was 91.2% and the viability, T/C (second compound 0.1 µM, first compound 0.3 µM) was 86%. For the same molecule, the viability, T/C (second compound 0.316 µM, first compound 0.000949 µM) was 70.7%, the viability, T/C (second compound 0.316 µM, first compound 0.003 µM) was 58.9% and the viability, T/C (second compound 0.316 µM, first compound 0.00949 µM) was 55.5%. The viability, T/C (second compound 0.316 µM, first compound 0.03 µM) was 42%, the viability, T/C (second compound 0.316 µM, first compound 0.0949 µM) was 57.1% and the viability, T/C (second compound 0.316 µM, first compound 0.3 µM) was 51.2%. It also gave a viability, T/C (second compound 1 µM, first compound 0.000949 µM) of 37.5%, a viability, T/C (second compound 1 µM, first compound 0.003 µM) of 34.9% and a viability, T/C (second compound 1 µM, first compound 0.00949 µM) of 41.9%. It also gave a viability, T/C (second compound 1 µM, first compound 0.03 µM) of 42%, a viability, T/C (second compound 1 µM, first compound 0.0949 µM) of 34.6% and a viability, T/C (second compound 1 µM, first compound 0.3 µM) of 35.5%. It also gave a viability, T/C (second compound 3.16 µM, first compound 0.000949 µM) of 35.8%, a viability, T/C (second compound 3.16 µM, first compound 0.003 µM) of 33% and a viability, T/C (second compound 3.16 µM, first compound 0.00949 µM) of 34%. The viability, T/C (second compound 3.16 µM, first compound 0.03 µM) was 34.6%, the viability, T/C (second compound 3.16 µM, first compound 0.0949 µM) was 34% and the viability, T/C (second compound 3.16 µM, first compound 0.3 µM) was 29.9%. It also gave a viability, T/C (second compound 10 µM, first compound 0.000949 µM) of 26.8%, a viability, T/C (second compound 10 µM, first compound 0.003 µM) of 29.7% and a viability, T/C (second compound 10 µM, first compound 0.00949 µM) of 30%. The viability, T/C (second compound 10 µM, first compound 0.03 µM) was 30.2%, the viability, T/C (second compound 10 µM, first compound 0.0949 µM) was 29% and the viability, T/C (second compound 10 µM, first compound 0.3 µM) was 32.5%.
